Test system: E. faecium VRE
Assay: MIC assay, E. faecium VRE
Assay type: cell-based, Enterococcus faecium
Settings: Vancomycin (VRE)
Method: MIC assays were performed in duplicate in 96-well microtiter plates on the basis of the protocol recommended by the Clinical and Laboratory Standards Institute (Cockerill, 2012, Clinical and Laboratory Standards Institute). All presented data are the average of at least three independent assays. Stock solutions of malacidin or daptomycin (2 mg ml^−1 in H2O) were added to the first well in a row and serially diluted (twofold per transfer) across the microtiter plate. CaCl2 was supplemented to media at a final concentration of 15 mM and fetal bovine serum (ATCC) was added to media (1:10) to test the effect of serum. Overnight cultures of bacteria were diluted 5,000-fold, and 50 μl was used as an inoculum in each well. MIC values were determined by visual inspection after 18 h incubation (30° C., static growth). For the enhanced calcium titration experiments, standard MIC assays were performed with methicillin-resistant Staphylococcus aureus (MRSA) PFGE strain type USA300 in media supplemented with CaCl2 at: 25.0, 18.8, 14.1, 7.03, 3.52, 2.50, 1.76, 0.880, 0.440, 0.250 and 0 mM. To assess the effects of monovalent and divalent cations on malacidin activity, standard MIC assays were performed with MRSA USA300 in media supplemented with 15 mM CaCl2, MgCl2, MnCl2, ZnCl2, SrCl2, NaCl and KCl. To evaluate the effects of pulmonary surfactants on activity against a community-acquired pneumonia-causing pathogen, standard MIC assays were performed with Streptococcus pneumoniae TCH8431 in media supplemented with both 15 mM […] and Survanta (beractant) at a final concentration of 5, 1, 0.5, 0.25 or 0% (volume/volume (v/v) percent).

malacidin A
MIC (E. faecium VRE, 15 mM CaCl2): 0.4-0.8 μg m1^−1 | MIC (Enterococcus faecium VRE): 0.8 to 2.0 µg/mL

— patent US11472843B2, “Malacidins and methods of use” (The Rockefeller University, priority 2017, dated 2022)
